Target: Proprotein convertase subtilisin/kexin type 9 (Homo sapiens, UniProt Q8NBP7)
Assay: PCSK9 Inhibition Assay
Experimental: For the peptide affinity determinations, biotinylated PCSK9 was immobilized to NeutrAvidin-coated MaxiSorp Immuno-Plates and incubated with a mixture of serially diluted synthetic peptide (Pep2-2 or Pep2 at 0-100 μM) and the correspondingpeptide-displaying phage at the earlier determined subsaturating concentration (see above). After a 1-h incubation in PBT buffer (PBS, 0.5% BSA, 0.05% Tween 20), the plate was washed extensively, and the bound phage was detected by anti-M13-HRP. The data were fitted to a four-parameter equation (KaleidaGraph) to determine the IC50 values. For IC50 measurements of the Pep2-2 derivatives (Fig. 1C) and for the truncated Pep2-8 peptides (Table 1), we used the peptides in a concentration range of 0-250 μM and the Pep2-2-displaying phage at subsaturating concentrations.

Proprotein convertase subtilisin/kexin type 9, sequence (Q8NBP7 31-152 limits assumed): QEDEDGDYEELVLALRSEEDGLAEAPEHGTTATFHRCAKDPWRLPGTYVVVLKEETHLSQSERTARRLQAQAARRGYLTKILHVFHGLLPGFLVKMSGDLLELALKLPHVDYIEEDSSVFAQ
Proprotein convertase subtilisin/kexin type 9, sequence (Q8NBP7 153-692 limits assumed): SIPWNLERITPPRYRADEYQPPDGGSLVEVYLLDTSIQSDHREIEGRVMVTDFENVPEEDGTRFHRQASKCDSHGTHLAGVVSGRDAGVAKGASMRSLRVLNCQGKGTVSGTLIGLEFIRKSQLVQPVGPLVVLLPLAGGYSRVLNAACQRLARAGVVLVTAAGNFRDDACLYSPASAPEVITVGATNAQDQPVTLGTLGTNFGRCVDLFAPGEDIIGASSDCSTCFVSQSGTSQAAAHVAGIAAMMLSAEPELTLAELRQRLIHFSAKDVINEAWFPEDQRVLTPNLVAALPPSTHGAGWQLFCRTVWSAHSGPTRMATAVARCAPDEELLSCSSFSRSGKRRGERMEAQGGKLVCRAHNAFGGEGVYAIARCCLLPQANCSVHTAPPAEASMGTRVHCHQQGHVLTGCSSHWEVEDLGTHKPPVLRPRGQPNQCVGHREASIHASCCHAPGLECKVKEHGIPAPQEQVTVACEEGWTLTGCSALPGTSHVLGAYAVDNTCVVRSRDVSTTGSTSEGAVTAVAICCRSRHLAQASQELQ

Compound	IC50
Ac-TVFTSWEEYL-NH2 [TVFTSWEEYL]	17.6 µM
Ac-TVFTSWEEYLLW-NH2 [TVFTSWEEYLLW]	6.2 µM
CC(=O)N[C@H](C(=O)N[C@H](C(=O)N[C@@H](Cc1ccccc1)C(=O)N[C@H](C(=O)N[C@@H](CO)C(=O)N[C@@H](Cc1c[nH]c2ccccc12)C(=O)N[C@@H](CCC(=O)O)C(=O)N[C@@H](CCC(=O)O)C(=O)N[C@@H](Cc1ccc(O)cc1)C(=O)N[C@@H](CC(C)C)C(=O)N[C@@H](CC(=O)O)C(=O)N[C@@H](Cc1c[nH]c2ccccc12)C(=O)N[C@H](C(N)=O)C(C)C)[C@@H](C)O)C(C)C)[C@@H](C)O [TVFTSWEEYLDWV]	1.4 µM
Ac-VFTSWEEYLLWV-NH2 [VFTSWEEYLLWV]	4 µM
Ac-VVFTSWQDYLFWV-NH2 [VVFTSWQDYLFWV]	37.7 µM
Ac-TVFTSWEEYLL-NH2 [TVFTSWEEYLL]	10 µM
Ac-TVFTSWEEYLLWV-NH2 [TVFTSWEEYLLWV]	0.76 µM
